Here are results for 25 compounds from ChEMBL document CHEMBL3525990, “Organic anion transporter 3 interacts selectively with lipophilic β-lactam antibiotics” (Drug Metab Dispos, 2013).

The target in data set [1] is T1, Solute carrier family 22 member 6 (Mus musculus, UniProt Q8VC69).
T1 sequence (Q8VC69 whole entry): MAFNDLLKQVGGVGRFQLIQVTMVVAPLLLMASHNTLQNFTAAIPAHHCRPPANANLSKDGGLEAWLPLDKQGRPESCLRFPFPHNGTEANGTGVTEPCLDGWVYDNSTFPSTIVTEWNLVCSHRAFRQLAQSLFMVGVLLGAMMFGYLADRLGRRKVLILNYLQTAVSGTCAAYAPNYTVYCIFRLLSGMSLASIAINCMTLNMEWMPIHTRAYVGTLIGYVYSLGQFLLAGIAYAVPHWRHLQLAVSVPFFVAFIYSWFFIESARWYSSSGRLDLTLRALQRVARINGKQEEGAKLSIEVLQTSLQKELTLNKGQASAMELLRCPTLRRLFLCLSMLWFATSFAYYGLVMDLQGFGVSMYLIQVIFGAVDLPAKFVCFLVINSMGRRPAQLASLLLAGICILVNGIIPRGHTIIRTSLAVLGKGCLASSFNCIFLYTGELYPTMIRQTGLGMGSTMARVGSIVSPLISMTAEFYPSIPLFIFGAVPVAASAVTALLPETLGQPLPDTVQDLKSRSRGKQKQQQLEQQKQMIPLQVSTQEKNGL
The data set can be described thus: Inhibition of mouse OAT1 expressed in CHO cells assessed as inhibition of fluorescein uptake at 500 uM over 20 mins relative to untreated-control. Type of data set: ADME, cell-based.

In data set [2] the target is T2, Organic anion transporter 3 (Mus musculus, UniProt O88909).
T2 sequence (O88909 whole entry): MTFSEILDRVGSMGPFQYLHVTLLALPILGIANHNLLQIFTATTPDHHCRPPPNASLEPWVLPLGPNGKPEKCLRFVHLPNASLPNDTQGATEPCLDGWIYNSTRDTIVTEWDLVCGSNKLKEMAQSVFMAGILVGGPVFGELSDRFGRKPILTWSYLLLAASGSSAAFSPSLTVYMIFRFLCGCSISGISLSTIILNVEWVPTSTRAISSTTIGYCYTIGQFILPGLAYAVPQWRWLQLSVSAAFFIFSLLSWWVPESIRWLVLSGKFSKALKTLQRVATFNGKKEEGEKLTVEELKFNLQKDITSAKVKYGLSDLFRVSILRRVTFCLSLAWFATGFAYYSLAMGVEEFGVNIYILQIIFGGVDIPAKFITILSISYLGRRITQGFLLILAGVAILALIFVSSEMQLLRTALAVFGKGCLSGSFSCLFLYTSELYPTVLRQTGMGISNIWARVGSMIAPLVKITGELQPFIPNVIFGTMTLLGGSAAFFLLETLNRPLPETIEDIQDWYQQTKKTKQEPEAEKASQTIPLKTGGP
The data set can be described thus: Inhibition of mouse OAT3 expressed in CHO cells assessed as inhibition of fluorescein uptake at 500 uM over 20 mins relative to untreated-control. Type of data set: ADME, cell-based.

Data set [3] has as its target T3, Organic anion transporter 3 (Homo sapiens, UniProt Q8TCC7).
T3 sequence (Q8TCC7 whole entry): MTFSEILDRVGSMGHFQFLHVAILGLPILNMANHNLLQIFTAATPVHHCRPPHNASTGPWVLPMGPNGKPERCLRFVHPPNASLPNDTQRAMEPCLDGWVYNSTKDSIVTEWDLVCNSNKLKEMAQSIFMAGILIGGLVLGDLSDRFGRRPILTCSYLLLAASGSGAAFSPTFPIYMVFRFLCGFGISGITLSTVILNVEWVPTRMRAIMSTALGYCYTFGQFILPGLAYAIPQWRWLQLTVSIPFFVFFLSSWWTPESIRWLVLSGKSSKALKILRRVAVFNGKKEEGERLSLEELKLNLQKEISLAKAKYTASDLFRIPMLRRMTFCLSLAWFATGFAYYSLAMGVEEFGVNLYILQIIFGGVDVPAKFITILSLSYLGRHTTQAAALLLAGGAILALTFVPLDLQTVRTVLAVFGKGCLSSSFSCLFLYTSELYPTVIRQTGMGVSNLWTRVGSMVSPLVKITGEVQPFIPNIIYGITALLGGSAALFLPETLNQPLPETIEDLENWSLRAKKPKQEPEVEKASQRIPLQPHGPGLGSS
The data set can be described thus: Inhibition of human OAT3 expressed in CHO cells assessed as inhibition of fluorescein uptake at 500 uM over 20 mins relative to untreated-control. Conditions: cho, 20 min, 500 µM; call rule not given here. Type of data set: ADME, cell-based.

Another data set has as its target T4, OAT3 (Homo sapiens, UniProt Q8TCC7).
T4 sequence (Q8TCC7 whole entry): T3 sequence (Q8TCC7 whole entry)
The data set can be described thus: Inhibition of human OAT3 expressed in CHO cells assessed as inhibition of fluorescein uptake over 20 mins relative to untreated-control. Type of data set: ADME, cell-based. The settings on record: CHO cells expressing human OAT3, probe fluorescein.

Data set [4] deals with T3, Organic anion transporter 3. As to the kind of experiment: Inhibition of human OAT3 using estrone-3-sulfate as substrate. Type of data set: ADME.
The target of data set [5] is T2, Organic anion transporter 3. The data set can be described thus: Inhibition of mouse OAT3 expressed in CHO cells assessed as inhibition of fluorescein uptake over 20 mins. Type of data set: ADME, cell-based.

With `CC1(C)S[C@@H]2[C@H](N)C(=O)N2[C@H]1C(=O)O`, the “inhibition (INH)” value in data set [1], in data set [2] and in data set [3] was “Not Active” each time.

On to `CC1(C)S[C@@H]2[C@H](NC(=O)[C@H](N)c3ccccc3)C(=O)N2[C@H]1C(=O)O` [AMPICILLIN], for which the “inhibition (INH)” value in data set [1], in data set [2] and in data set [3] was “Not Active” each time.

With `CC1(C)S[C@@H]2[C@H](NC(=O)[C@H](NC(=O)N3CCNC3=O)c3ccccc3)C(=O)N2[C@H]1C(=O)O` [AZLOCILLIN], the “inhibition (INH)” value in data set [1], in data set [2] and in data set [3] was “Not Active” throughout.

As to `C[C@H]1[C@H](NC(=O)/C(=N\OC(C)(C)C(=O)O)c2csc(N)n2)C(=O)N1S(=O)(=O)O` [AZTREONAM], the “inhibition (INH)” value in data set [1], in data set [2] and in data set [3] was “Not Active” in each case.

As for `CC1(C)S[C@@H]2[C@H](NC(=O)C(C(=O)O)c3ccccc3)C(=O)N2[C@H]1C(=O)O` (stereo partly specified) [CARBENICILLIN], the “inhibition (INH)” value in data set [2] and in data set [3] was “Not Active” throughout. In addition, on OAT3, the inhibition (commonly the percentage by which the read-out fell short of the control) at 20 min turned out to be 70%.

For the compound `N[C@@H](C(=O)N[C@@H]1C(=O)N2C(C(=O)O)=C(Cl)CS[C@H]12)c1ccccc1` [CEFACLOR ANHYDROUS], the figures for the “inhibition (INH)” value in data set [1], in data set [2] and in data set [3] were “Not Active”, “Not Active” and “Active”, respectively. Also, in data set [4], the IC50 (commonly the concentration needed to halve the response being measured) came to 120 µM.

Consider `CO[C@@]1(NC(=O)CSCC#N)C(=O)N2C(C(=O)O)=C(CSc3nnnn3C)CS[C@@H]21` [CEFMETAZOLE], for which the IC50 in data set [5] was 105 µM. For the same compound, the figures for the “inhibition (INH)” value in data set [1], in data set [2] and in data set [3] were “Active”, “Not Active” and “Not Active”, respectively.

As to `CCN1CCN(C(=O)N[C@@H](C(=O)N[C@@H]2C(=O)N3C(C(=O)O)=C(CSc4nnnn4C)CS[C@H]23)c2ccc(O)cc2)C(=O)C1=O` [CEFOPERAZONE], the “inhibition (INH)” value in data set [2] and in data set [3] was “Not Active” in each case.

With `CO/N=C(\C(=O)N[C@@H]1C(=O)N2C(C(=O)O)=C(COC(C)=O)CS[C@H]12)c1csc(N)n1` [CEFOTAXIME], the “inhibition (INH)” value in data set [2] and in data set [3] was “Not Active” throughout.

`CO[C@@]1(NC(=O)Cc2cccs2)C(=O)N2C(C(=O)O)=C(COC(N)=O)CS[C@@H]21` [CEFOXITIN]: in data set [5], the half-inhibitory concentration (IC50) was 57 µM. Also, the “inhibition (INH)” value in data set [1], in data set [2] and in data set [3] was “Not Active” throughout.

Take `NC(=O)c1cc[n+](CC2=C(C(=O)O)N3C(=O)[C@@H](NC(=O)[C@@H](c4ccccc4)S(=O)(=O)[O-])[C@H]3SC2)cc1` [CEFSULODIN]: the “inhibition (INH)” value in data set [1], in data set [2] and in data set [3] was “Not Active” each time.

`CC(C)(O/N=C(\C(=O)N[C@@H]1C(=O)N2C(C(=O)[O-])=C(C[n+]3ccccc3)CS[C@H]12)c1csc(N)n1)C(=O)O` [CEFTAZIDIME]: the “inhibition (INH)” value in data set [1], in data set [2] and in data set [3] was “Not Active” in each case.

With `CO/N=C(\C(=O)N[C@@H]1C(=O)N2C(C(=O)O)=C(CSC(=O)c3ccco3)CS[C@H]12)c1csc(N)n1` [CEFTIOFUR], in data set [5], the 50% inhibitory concentration (IC50) stood at 35.7 µM. The “inhibition (INH)” value in data set [1], in data set [2] and in data set [3] was “Not Active” each time.

In the case of `CO/N=C(\C(=O)N[C@@H]1C(=O)N2C(C(=O)O)=C(COC(N)=O)CS[C@H]12)c1ccco1` [CEFUROXIME], the “inhibition (INH)” value in data set [1], in data set [2] and in data set [3] was “Not Active” each time.

Take `CC1=C(C(=O)O)N2C(=O)[C@@H](NC(=O)[C@H](N)c3ccccc3)[C@H]2SC1` [CEPHALEXIN ANHYDROUS]: the “inhibition (INH)” value in data set [1] and in data set [3] was “Not Active” in each case.

As to `CC(=O)OCC1=C(C(=O)O)N2C(=O)[C@@H](NC(=O)Cc3cccs3)[C@H]2SC1` [CEPHALOTHIN], the IC50 in data set [5] was found to be 33.3 µM. Besides, the “inhibition (INH)” value in data set [2] and in data set [3] was “Not Active” throughout.

`Cc1onc(-c2ccccc2Cl)c1C(=O)N[C@@H]1C(=O)N2[C@@H]1SC(C)(C)[C@@H]2C(=O)O` [CLOXACILLIN]: in data set [5], the half-inhibitory concentration (IC50) is 30.9 µM. Further, the “inhibition (INH)” value in data set [1], in data set [2] and in data set [3] was “Not Active” in each case.

In the case of `Cc1onc(-c2c(Cl)cccc2Cl)c1C(=O)N[C@@H]1C(=O)N2[C@@H]1SC(C)(C)[C@@H]2C(=O)O` [DICLOXACILLIN], in data set [5], the IC50 came out at 16.6 µM. For the same compound, the “inhibition (INH)” value in data set [1], in data set [2] and in data set [3] was “Active” throughout.

Take `COc1cccc(OC)c1C(=O)N[C@@H]1C(=O)N2[C@@H]1SC(C)(C)[C@@H]2C(=O)O` [METHICILLIN]: the IC50 in data set [5] was 116 µM. Also, the “inhibition (INH)” value in data set [1], in data set [2] and in data set [3] was “Not Active” in each case.

On to `CCOc1ccc2ccccc2c1C(=O)N[C@@H]1C(=O)N2[C@@H]1SC(C)(C)[C@@H]2C(=O)O` [NAFCILLIN], for which, in data set [5], the half-inhibitory concentration (IC50) stood at 34.9 µM. The “inhibition (INH)” value in data set [1], in data set [2] and in data set [3] was “Not Active” throughout.

Turning to `Cc1onc(-c2ccccc2)c1C(=O)N[C@@H]1C(=O)N2[C@@H]1SC(C)(C)[C@@H]2C(=O)O` [OXACILLIN], the IC50 in data set [5] turned out to be 35 µM. Besides, the entries for the “inhibition (INH)” value in data set [1], in data set [2] and in data set [3] were “Not Active”, “Active” and “Active”, respectively.

For the compound `CC1(C)S[C@@H]2[C@H](NC(=O)Cc3ccccc3)C(=O)N2[C@H]1C(=O)O` [PENICILLIN G], the IC50 in data set [5] came to 89.4 µM. In addition, the “inhibition (INH)” value in data set [3] is on record as “Active”.

`CC1(C)S[C@@H]2[C@H](NC(=O)COc3ccccc3)C(=O)N2[C@H]1C(=O)O` [PENICILLIN V]: the half-inhibitory concentration (IC50) in data set [5] is 48.6 µM. Besides, the “inhibition (INH)” value in data set [1], in data set [2] and in data set [3] was “Not Active” throughout.

Regarding `CCN1CCN(C(=O)N[C@@H](C(=O)N[C@@H]2C(=O)N3[C@@H]2SC(C)(C)[C@@H]3C(=O)O)c2ccccc2)C(=O)C1=O` [PIPERACILLIN], the “inhibition (INH)” value in data set [1] was “Active”; in data set [2], “Not Active”; in data set [3] it was “Not Active”.

As for `CC1(C)S[C@@H]2[C@H](NC(=O)[C@H](C(=O)O)c3ccsc3)C(=O)N2[C@H]1C(=O)O` [TICARCILLIN], in data set [5], the IC50 turned out to be 233 µM. Besides, the “inhibition (INH)” value in data set [2] and in data set [3] was “Not Active” each time.
